In patent US20260001910A1, “PEPTIDES AND USES THEREOF” (PreveCeutical Medical Inc., priority 2021, published 2026):

Tests used:
recombinant MMP-2 = target: T1, recombinant MMP-2 (Homo sapiens, UniProt P08253); experiment: MMP-2 Inhibitor Screening Assay Kit (colorimetric); format: biochemical; details: lower % = higher inhibitory activity
T1 construct: purchased ab139446
Method: MMP-2 is an important target for inhibitor screening due to its involvement in cancer growth, angiogenesis, and metastasis. The MMP-2 screening assay was carried out with a commercially available MMP-2 Inhibitor Screening Assay Kit (Colorimetric, Catalog: ab139446) based on the manufacturers protocol. This assay is based on quantification of recombinant MMP-2 activity using a colorimetric assay (MMP-2 degrades a chromogenic substrate). The assay provides NNGH (N-isobutyl-N-(4-methoxyphenylsulfonyl) glycyl hydroxamic acid), a small molecule inhibitor, as a positive control (NNGH). […] Each determination was run in duplicate.
Briefly, MMP Substrate and MMP Inhibitor were warmed to room temperature to thaw DMSO. MMP Inhibitor (NNGH), MMP-2 substrate and MMP-2 enzyme were diluted with assay buffer to required concentration. 20 μL of MMP-2 enzyme and MMP-2 inhibitor (peptides, Chlorotoxin and NNGH) was added, then 50 μL of assay buffer was added and the reaction mixture incubated at 37° C. for 1 h. After incubation, 10 μL of MMP Substrate was added to start reaction. The reactions were continuously read at 412 nm in a microplate reader. Data was recorded at 1 min. time intervals for 10 to 20 min. The data as was plotted as optical density (OD) versus time for each sample. The reaction velocity (V) was obtained in OD/min: determine the slope of a line fit to the linear portion of the data plot using an appropriate routine. Then using the equation above the inhibitor % activity remaining was calculated. The control was without inhibitor.

[1] = system: GBM cells (U251, U87 and 081024 cells); experiment: Binding/internalization of biotinylated peptide, confocal fluorescence microscopy; format: cell-based, human; details: 0.5 mM labelled peptide
Method: FIG. 1 provides fluorescence staining of biotinylated peptide SEQ ID NO. 1 after 6 hours cell exposure (U251 cells and U87 cells) or 5 min cell exposure (081024 oncospheres). Upper right-hand panel: U251 cells, middle right-hand panel, U87 cells, lower right-hand panel, 081024 oncospheres. No peptide negative control (left side of each panel). […] Nuclei appear blue due to DAPI staining. Images were captured using a 100X objective and a Olympus FV3000 confocal microscope
To document binding and/or internalization of the peptides to the cells, biotinylated derivatives of the peptides were synthesised to allow detection by Cy3-conjugated avidin staining using confocal fluorescence microscopy.
U87 and U251 cells were seeded on 8-chamber polystyrene vessel tissue culture-treated glass slides (Falcon). After 24h, cells were incubated with biotinylated peptide (0.5 mM) containing serum free media for 5 min and 6 h. […] Cells were then rinsed and mounted on microscopic slides with DAPI-containing mounting medium for confocal fluorescence imaging analysis.
The ability of SEQ ID NO. 41 to bind and/or enter GBM cells was evaluated. In a first set of experiments, adherent GBM cells and non-adherent GBM cells were exposed to 0.5 mM labelled peptide for 6 h, processed and analysed by confocal immunofluorescence microscopy. […]

U87 cells = details: U87, 1 μM, 24h
Method: (§1) This assay, described in more detail below, is an in vitro surrogate for measurement of the in vivo invasion by tumour cells of their environment.
(§2) The cell invasion assay employs a simplified Boyden chamber-like design that consists of two chambers separated by a filter (an 8 μm polycarbonate (PC) membrane) coated with basement membrane or different extracellular matrix components. The cell suspension is placed in the top chamber and incubated in the presence of test media containing specific chemo-attractants in the bottom chamber. Cells migrate from the top chamber to the bottom of the filter by degrading the coating over the filter pores. Detection of cell invasion is quantified using Calcein AM. Cell dissociation/Calcein AM solution is placed in the bottom chamber to dissociate the migrating cells from the filter. Calcein AM is internalized by the cells, and intracellular-esterases cleave the aceto-methylester (AM) moiety.
(§3) The filter was coated with PathClear® growth factor reduced BME.
(§4) Cell invasion was determined using CultureCoat® 96 Well Medium BME Cell Invasion assay. Briefly, the cells were pre-starved 24h before harvest. Then seeding 25,000 per well of cell in the upper chamber with serum free medium together different concentration of peptide. […] After 24h incubation, the invading cells were measured by Calcein AM and calculated based on standard curve.

U251 cells = details: U251, 1 μM, 24h
Method: as §1, §2, §3, §4

081024 oncospheres = details: 081024, 1 μM, 24h

T1 sequence (P08253 110-446 limits assumed): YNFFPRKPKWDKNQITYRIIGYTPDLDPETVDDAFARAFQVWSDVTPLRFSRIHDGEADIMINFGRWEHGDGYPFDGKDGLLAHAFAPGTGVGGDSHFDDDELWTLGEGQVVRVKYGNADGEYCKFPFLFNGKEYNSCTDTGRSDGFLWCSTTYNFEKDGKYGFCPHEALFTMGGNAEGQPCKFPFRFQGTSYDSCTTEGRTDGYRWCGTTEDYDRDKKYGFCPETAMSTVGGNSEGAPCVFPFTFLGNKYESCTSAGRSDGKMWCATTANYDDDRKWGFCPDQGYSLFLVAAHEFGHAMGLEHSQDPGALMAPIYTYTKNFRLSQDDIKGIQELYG

## COc1ccc(S(=O)(=O)N(CC(=O)NO)CC(C)C)cc1 [NNGH, N-isobutyl-N-(4-methoxyphenylsulfonyl) glycyl hydroxamic acid, reference compound]
Recombinant MMP-2; 1.3 μM
  % inhibition (MMP-2 inhibitor screening): 2.29%

## Biotin-tyr-gly-gly-phe-leu-arg-arg [SEQ ID NO. 41]
[1]; 5 minutes exposure, U251, U87 and 081024 cells
  binding/entry into GBM cells, Cy3 staining: already internalised
[1]; 6 h exposure
  binding/entry into GBM cells, Cy3 staining: bright intracellular fluorescence

## Chlorotoxin
U87 cells
  Invasion Inhibition Index (%): 39.5%
U251 cells
  Invasion Inhibition Index (%): 28.50%
081024 oncospheres
  Invasion Inhibition Index (%): 45.0%
Recombinant MMP-2; 1 μM
  % inhibition (MMP-2 inhibitor screening): 67.94%
